In patent US7504422B2, “Polyamine compounds” (Taigen Biotechnology Co. Ltd., priority 2003, dated 2009):

How the values were obtained:
[1] = Maximum Tolerated Dose; conditions: male, BALB/c, mouse, in vivo, intravenous; mice
[2] = tested on: hematopoietic stem cells CD34+ and EPCs CD133+; assay: Stem cell and endothelial progenitor cell mobilization into peripheral blood; assay type: in vivo, BALB/c mice; conditions: for Fold increase at 1 mg/Kg, CD34+ / Fold increase at Maximum Tolerated Dose (MTD), CD34+: CD34+ cells in circulation; for Fold increase at 1 mg/Kg, CD34+ / Fold increase at Maximum Tolerated Dose (MTD), CD34+ / Fold increase at 1 mg/Kg, CD133+ / Fold increase at Maximum Tolerated Dose (MTD), CD133+: mice; for Fold increase at Maximum Tolerated Dose (MTD), CD34+ / Fold increase at Maximum Tolerated Dose (MTD), CD133+: MTD (125: 15 mg/kg, 136: 30 mg/Kg); for Fold increase at 1 mg/Kg, CD133+ / Fold increase at Maximum Tolerated Dose (MTD), CD133+: CD133+ cells in circulation; for Fold increase in circulation, CD34+ / Fold increase in circulation, CD133+: Table 2, 125 at 15 mg/Kg, G-CSF at 50 ug/kg/d × 4, alone or combined; for mobilization of hematopoietic stem cells CD34+ and EPCs CD133+ into peripheral blood: animal studies
Method: The in vivo efficacy of these two compounds in mobilizing stem cells was tested in male Special Pathogens Free (SPF) BALB/c mice. Different concentrations of a compound solution were prepared and administrated either intravenously of intramuscularly into mice. Mice receiving saline were used as a control. Whole blood was collected at 3 hours after i.v. injection or 6 hours after i.m. injection by cardiac puncture. Total leukocytes were resuspended in PBS and cell numbers were counted using trypan blue exclusion. Cells numbers were adjusted to 6×10^4 in 0.1 mL PBS for antibody staining. CXCR4^+ cells, CD34^+ cells, and CD133^+ cells were counted using surface staining and flow cytometry analysis. Data represents mean ±SEM of four independent experiments. Levels of cell number in different groups were compared using One-way ANOVA, differences were considered significant if P values were <0.05.

Molecule: c1ccc(CNCCN(CCNCc2ccccn2)Cc2ccc(CNCc3nc4ccccc4[nH]3)cc2)nc1 [Compound 125, N-(4-{[(1H-benzoimidazol-2-ylmethyl)-amino]-methyl}-benzyl)-N′-pyridin-2-ylmethyl-N-{2-[(pyridin-2-ylmethyl)-amino]-ethyl}-ethane-1,2-diamine]
- MTD [1]: 15 mg/kg
- Fold increase at 1 mg/Kg, CD34+ [2]: 3.99 fold
- Fold increase at Maximum Tolerated Dose (MTD), CD34+ [2]: 6.58 fold
- Fold increase at 1 mg/Kg, CD133+ [2]: 2.24 fold
- Fold increase at Maximum Tolerated Dose (MTD), CD133+ [2]: 5.77 fold
- Fold increase in circulation, CD34+ [2]: 7.1 fold
- Fold increase in circulation, CD133+ [2]: 6.0 fold
- mobilization of hematopoietic stem cells CD34+ and EPCs CD133+ into peripheral blood [2]: rapidly mobilized

Molecule: COc1ccc2[nH]c(CNCc3ccc(CN(CCNCc4ccccn4)CCNCc4ccccn4)cc3)nc2c1 [Compound 136, N1-(4-(((5-methoxy-1H-benzo[d]imidazol-2-yl)methylamino)methyl)benzyl)-N2-(pyridin-2-ylmethyl)-N1-(2-(pyridin-2-ylmethylamino)-ethyl)ethane-1,2-diamine]
- MTD [1]: 30 mg/kg
- Fold increase at 1 mg/Kg, CD34+ [2]: 2.63 fold
- Fold increase at Maximum Tolerated Dose (MTD), CD34+ [2]: 5.66 fold
- Fold increase at 1 mg/Kg, CD133+ [2]: 3.17 fold
- Fold increase at Maximum Tolerated Dose (MTD), CD133+ [2]: 8.49 fold
- mobilization of hematopoietic stem cells CD34+ and EPCs CD133+ into peripheral blood [2]: rapidly mobilized

B1: G-CSF: granulocyte-colony stimulating factor; growth factor for stem cells and EPCs currently used in clinics (protein, UniProt P09919 31-207, looked up)
Granulocyte …: TPLGPASSLPQSFLLKCLEQVRKIQGDGAALQEKLVSECATYKLCHPEELVLLGHSLGIPWAPLSSCPSQALQLAGCLSQLHSGLFLYQGLLQALEGISPELGPTLDTLQLDVADFATTIWQQMEELGMAPALQPTQGAMPAFASAFQRRAGGVLVASHLQSFLEVSYRVLRHLAQP
- Fold increase in circulation, CD34+ [2]: 8.4 fold
- Fold increase in circulation, CD133+ [2]: 26.2 fold
